Measured values taken from patent US20080176963A1, “TREATMENT OF BRAIN DISORDERS OF THE STRIATUM” (priority 2007, published 2008).
Like-named read-outs stand apart in the source and are kept apart here.

Legend:
tyrosine hydroxylase = experiment: Tyrosine hydroxylase staining of striatum after 6-OHDA; type: in vivo, mouse; conditions: 48 hours after bilateral 6-OHDA injection (5 μg/μL, 2 μL/side)
Experimental: (§1) 6-hydroxydopamine treatment Bilateral lesions of the substantia nigra pars compacta were achieved by injecting 6-OHDA Bromide (Sigma-Aldrich) into the right and left medial forebrain bundles. Mice were anesthetized with i.p. injections of ketamine (100 mg/kg)/xylazine (10 mg/kg) and placed into a stereotactic frame. 6-OHDA was prepared immediately before injections at a concentration of 5 μg/μL in 0.02% ascorbic acid. Injections were performed using 33 gauge cannulae (Plastics One) attached to a syringe pump (Harvard Apparatus) running at 0.5 μL/min, to a total volume of 2 μL/side at the following coordinates: AP: −1.5 mm; ML±1 mm; DV: 4.8 mm. Brain slices were obtained from 6-OHDA treated animals at 48-60 hour after injections.
Tyrosine hydroxylase staining. The degree of dopamine denervation was assessed at 48 hours post-injection in a subset of 6-OHDA-treated mice by tyrosine hydroxylase (TH) staining. Mouse forebrains were fixed at 4° C. for 1 hour in 4% paraformaldehyde (in PBS), and then kept in PBS overnight at 4° C. Brains were transferred to 30% sucrose (in PBS) for 2 hours, blocked in O.C.T. and frozen. […] coronal slices containing the striatum were collected on slides using a cryostat. […] Images were acquired on a Zeiss Axioskop 2 coupled to a Hamamatsu CCD and analyzed using Metamorph software.

[1] = system: indirect-pathway MSN synapses; type: cell-based, mouse
6-OHDA-treated mice [2] = conditions: mouse, in vivo
Experimental: (§2) Dopamine depletion and behaviour. Reserpine was administered i.p. at a concentration of 1 or 5 mgkg^−1, and electrophysiological and behavioural experiments were performed 18-24 h after injections. 6-Hydroxydopamine was injected bilaterally into the median forebrain bundle at a concentration of 5 μg μl^−1 to a total volume of 2 μL per side, and experiments were performed 48-60 h after injections. Catalepsy was measured with the bar test. Descent latency represents the time in seconds required for the mouse either to remove both paws from a bar (diameter 2 mm) placed 4 cm above the ground, or for one paw to touch the ground. Horizontal locomotor activity was measured in 15-min blocks with the ENV-510 test chamber and Activity Monitor software. Animals were tested 45-60 min after drug administration. All procedures involving animals were approved by the Institutional Animal Care and Use Committee.
as §1
(§3) Behavior. 3- to 4-week-old C57/BL6 wild-type mice were injected with reserpine (1 mg/kg i.p.) or 6-OHDA as described above. […] Animals were tested 18-24 hours after reserpine injections and 48-60 hours after 6-OHDA injections. […]
(§4) To test catalepsy, a horizontal bar (2 mm diameter) was placed 4 cm above the ground. […] Descent latency was measured as the delay to when either both paws were removed from the bar or one paw touched the ground. […]

6-OHDA-treated mice [3] = type: in vivo, mouse
Experimental: as §2, §1, §3, §4

direct-pathway synapses [4] = experiment: DHPG-elicited depression of EPSCs (eCB-LTD), direct pathway; type: cell-based, mouse; conditions: DHPG 100 μM for 10 min, MSNs held at +50 mV (so in the source)
[5] = system: indirect-pathway synapses; experiment: DHPG-elicited depression of EPSCs (eCB-LTD), indirect pathway; type: cell-based, mouse
medium spiny neurons = experiment: Effect of drug wash-in alone on EPSC amplitudes in striatal MSNs; type: cell-based, mouse; conditions: URB597 1 μM; URB754 5 μM
reserpine-treated mice [6] = experiment: Catalepsy bar test in reserpine-treated mice; type: in vivo, mouse
Experimental: as §2
(§5) Reserpine treatment. To study the effects of dopamine depletion, reserpine (Sigma-Aldrich) was dissolved in 1% glacial acetic acid at a concentration of 2.5 mg/mL. This solution was diluted with dH20 by a factor of 10, to yield a final concentration of 0.1% glacial acetic acid and 250 μg/mL reserpine This reserpine solution was injected i.p. at a concentration of 1 mg/kg or 5 mg/kg as stated in the text.
(§6) Behavior. 3- to 4-week-old C57/BL6 wild-type mice were injected with reserpine (1 mg/kg i.p.) or 6-OHDA as described above. […] Animals were tested 18-24 hours after reserpine injections and 48-60 hours after 6-OHDA injections. […] All drugs were injected i.p. in 0.9% NaCl at a volume of 20 μL/gm. The injection solution for URB597 was prepared by diluting a stock solution prepared in DMSO into saline, with a final concentration of 0.5% DMSO. Animals were then tested again at 45-60 minutes following drug injections. […]
as §4

[7] = system: indirect-pathway MSN synapses; experiment: LTD induced by tetanic stimulation in striatal slices from reserpine-treated mice; type: cell-based, mouse
reserpine-treated mice [8] = experiment: Open-field locomotor activity in reserpine-treated mice; type: in vivo, mouse
Experimental: as §2, §5, §6, §4

direct pathway neurons = experiment: LTD induction at direct pathway synapses in striatal slices; type: cell-based, mouse; conditions: URB754 5 μM
[9] = system: indirect-pathway synapses; experiment: Presynaptic inhibition of EPSCs by CB1 receptor agonist, indirect pathway; type: cell-based, mouse; conditions: WIN55,212 1 μM
direct-pathway synapses [10] = experiment: Presynaptic inhibition of EPSCs by CB1 receptor agonist, direct pathway; type: cell-based, mouse; conditions: WIN55,212 1 μM; control mice
MSNs = experiment: Block of carbachol-induced inward membrane current in MSNs; type: cell-based, mouse; conditions: pirenzepine; data not shown
Text: FIG. 5. […] The arrow marks the time of LTD induction. […] Error bars are ±SEM.

striatal dopamine = conditions: 18-24 hours after reserpine injection; cited from earlier work
[11] = system: indirect-pathway MSN synapses; experiment: LTD induced by high-frequency afferent stimulation, whole-cell recording in striatal slices of control mice; type: cell-based, mouse; conditions: indirect-pathway MSNs; AM251 1 μM; sulpiride 10 μM; methysergide 4 μM, GR125487 1 μM, LY278584 1 μM, prazosin 2 μM, propranolol 1 μM; without drug 51±5%

## NCCc1cc(O)c(O)cc1O [6-OHDA, 6-hydroxydopamine]
Tyrosine hydroxylase
  Immunoreactivity for tyrosine hydroxylase in the striatum: 34±4 % of control
[1]
  EPSC after LTD induction, % of baseline at 30-40 min: 111±13 % of baseline
6-OHDA-treated mice [2]
  Distance traveled in 15 min, open field: 236±52 cm
6-OHDA-treated mice [3]; mouse, in vivo
  Descent latency, catalepsy bar test: 45 ± 4 s

## N[C@H](C(=O)O)c1cc(O)cc(O)c1 [DHPG, (S)-3,5-dihydroxyphenylglycine]
direct-pathway synapses [4]
  EPSC, % of baseline at 30-40 min: 95±9 % of baseline
[5]; DHPG 100 μM for 1 min, alone or in the presence of quinpirole 10 μM or URB754
  EPSC, % of baseline at 20-30 min after brief DHPG application: 98±5 % of baseline
[5]; DHPG 100 μM for 10 min, MSNs held at +50 mV (so in the source)
  EPSC, % of baseline at 30-40 min: 64±5 % of baseline

## NC(=O)c1cccc(-c2cccc(OC(=O)NC3CCCCC3)c2)c1 [URB597]
Medium spiny neurons
  Effect of drug alone on EPSC amplitudes / synaptic transmission: no effect
reserpine-treated mice [6]; mouse, in vivo
  Descent latency, catalepsy bar test: no significant decrease in catalepsy
[1]
  EPSC after LTD induction, % of baseline at 30-40 min: 55±7 % of baseline
6-OHDA-treated mice [2]
  Distance traveled in 15 min, open field: no significant decrease in catalepsy or increase in locomotor activity
[7]
  EPSC after LTD induction, % of baseline at 30-40 min: 62±5 % of baseline
reserpine-treated mice [8]; mouse, in vivo
  Distance traveled in 15 min, open field: no significant decrease in catalepsy or increase in locomotor activity
6-OHDA-treated mice [3]; mouse, in vivo
  Descent latency, catalepsy bar test: no significant decrease in catalepsy

## Cc1ccc(Nc2nc3ccc(C)cc3c(=O)o2)cc1 [URB754]
Medium spiny neurons
  Effect of drug alone on EPSC amplitudes / synaptic transmission: no effect
reserpine-treated mice [6]; reserpine-treated mice, URB754 1.5 mg/kg i.p., quinpirole 1.5 mg/kg i.p., alone or coadministered
  Descent latency, catalepsy bar test: no significant decrease in catalepsy
[1]
  EPSC after LTD induction, % of baseline at 30-40 min: 69±9 % of baseline
6-OHDA-treated mice [2]
  Distance traveled in 15 min, open field: no significant decrease in catalepsy or increase in locomotor activity
[7]
  EPSC after LTD induction, % of baseline at 30-40 min: 68±13 % of baseline
reserpine-treated mice [8]; mouse, in vivo
  Distance traveled in 15 min, open field: no significant decrease in catalepsy or increase in locomotor activity
Direct pathway neurons
  LTD at direct pathway neurons in the presence of drug: nor did it unmask LTD
[5]
  EPSC, % of baseline at 20-30 min after brief DHPG application: 84±6 % of baseline
6-OHDA-treated mice [3]; 6-OHDA-treated mice, URB754 1.5 mg/kg i.p., quinpirole 1.5 mg/kg i.p., alone or coadministered
  Descent latency, catalepsy bar test: no significant decrease in catalepsy

## Cc1c(C(=O)c2cccc3ccccc23)c2cccc3c2n1[C@H](CN1CCOCC1)CO3 [WIN55,212]
[9]; control mice
  EPSC, % of baseline at 15-20 min after wash-in: 47±7 % of baseline
[9]; dopamine-depleted animals (reserpine and 6-OHDA pooled)
  EPSC, % of baseline at 15-20 min after washing: 58±5 % of baseline
direct-pathway synapses [10]
  EPSC, % of baseline at 15-20 min after wash-in: 56±8 % of baseline

## CN1CCN(CC(=O)N2c3ccccc3C(=O)Nc3cccnc32)CC1 [pirenzepine]
MSNs
  Block of carbachol-induced inward membrane current: block a carbachol-induced inward membrane current

## COC(=O)[C@H]1[C@H]2C[C@@H]3c4[nH]c5cc(OC)ccc5c4CCN3C[C@H]2C[C@@H](OC(=O)c2cc(OC)c(OC)c(OC)c2)[C@@H]1OC [reserpine]
reserpine-treated mice [6]; reserpine 1 mg/kg i.p. 18-24 h before, URB597 1 mg/kg i.p., quinpirole 1.5 mg/kg i.p., alone or together, 60 s maximum, reserpine line = before drug
  Descent latency, catalepsy bar test: more than 60 s
Striatal dopamine
  Striatal dopamine: < 1 % of normal levels
[7]; mice given reserpine 5 mg/kg i.p. 18-24 h earlier, in bath quinpirole 10 μM, URB597 1 μM or URB754 5 μM, reserpine line = no drug in bath
  EPSC after LTD induction, % of baseline at 30-40 min: 122±8 % of baseline
reserpine-treated mice [8]; reserpine 1 mg/kg i.p. 18-24 h before, URB597 1 mg/kg i.p., quinpirole 1.5 mg/kg i.p., 45-60 min after injection, reserpine line = before drug
  Distance traveled in 15 min, open field: 48±11 cm

## CCN1CCCC1CNC(=O)c1cc(S(N)(=O)=O)ccc1OC (centres unmarked) [sulpiride]
[11]
  EPSC after LTD induction, % of baseline at 30-40 min: 96±12 % of baseline
